Patent US8796259B2, “N3-heteroaryl substituted triazoles and N5-heteroaryl substituted triazoles useful as axl inhibitors” (Rigel Pharmaceuticals, Inc., priority 2006, dated 2014)

What follows are compounds tested against T1, Axl (Homo sapiens, UniProt P30530) (assay: Phospho-Akt in-cell Western assay (inhibition of Axl activity, Axl-antibody cross-linking stimulation)). Details: Hela cells, phospho-Akt readout; compounds of formula (Ia), Table 1.
T1 construct: endogenous in cells; host or cells: HeLa cells
T1 sequence (P30530 26-894): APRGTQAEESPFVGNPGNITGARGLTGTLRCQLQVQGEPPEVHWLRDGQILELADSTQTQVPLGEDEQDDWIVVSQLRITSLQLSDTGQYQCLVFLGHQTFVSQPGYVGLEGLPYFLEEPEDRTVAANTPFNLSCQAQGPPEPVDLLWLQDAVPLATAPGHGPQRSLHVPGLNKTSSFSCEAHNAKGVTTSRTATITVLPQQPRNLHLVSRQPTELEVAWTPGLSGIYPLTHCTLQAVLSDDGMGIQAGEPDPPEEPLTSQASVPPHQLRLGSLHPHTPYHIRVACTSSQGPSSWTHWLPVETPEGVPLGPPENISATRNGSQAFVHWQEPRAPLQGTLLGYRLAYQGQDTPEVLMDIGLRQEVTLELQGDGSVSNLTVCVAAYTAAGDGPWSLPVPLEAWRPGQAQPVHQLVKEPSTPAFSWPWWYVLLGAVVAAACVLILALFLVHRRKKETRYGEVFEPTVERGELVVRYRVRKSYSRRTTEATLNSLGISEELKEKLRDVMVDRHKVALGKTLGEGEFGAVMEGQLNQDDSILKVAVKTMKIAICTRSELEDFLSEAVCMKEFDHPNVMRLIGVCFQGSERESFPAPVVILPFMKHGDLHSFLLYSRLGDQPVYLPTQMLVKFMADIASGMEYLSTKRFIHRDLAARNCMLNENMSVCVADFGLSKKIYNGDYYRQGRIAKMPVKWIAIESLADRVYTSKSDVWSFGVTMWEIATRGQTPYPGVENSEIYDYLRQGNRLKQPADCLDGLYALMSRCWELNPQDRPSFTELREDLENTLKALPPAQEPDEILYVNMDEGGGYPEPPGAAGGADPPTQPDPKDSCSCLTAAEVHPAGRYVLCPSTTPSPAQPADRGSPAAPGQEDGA
Type: cell-based
Summary of the method: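 HeLa cells on poly-L-lysine were starved 24 h in 0.5% FCS/DMEM with 500 ng/mL Axl/Fc, pre-treated with compound 1 h at 37 °C, then stimulated 5 min by cross-linked mouse anti-Axl/biotin anti-mouse antibody clusters. After formaldehyde fixation, phospho-Akt was detected by rabbit anti-phospho-Akt and HRP secondary with chemiluminescence read-out.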

`Cc1csc2c(-n3nc(Nc4cnc5c(c4)CCC(N4CCCC4)CC5)nc3N)ncnc12` (centres unmarked) [compound 105, 1-(7-methylthieno [3,2-d]pyrimidin-4-yl)-N^3-(7-(pyrrolidin-1-yl)-6,7,8,9-tetrahydro-5H-cyclohepta [b]pyridine-3-yl)-1H-1,2,4-triazole-3,5-diamine] and `Cc1csc2c(-n3nc(Nc4cnc5c(c4)CCC(N4CCCC4)CC5)nc3N)nc(Cl)nc12` (centres unmarked) [compound 77, 1-(2-chloro-7-methylthieno [3,2-d]pyrimidine-4-yl)-N^3-(7-(pyrrolidin-1-yl)-6,7,8,9-tetrahydro-5H-cyclohepta[b]pyridin-3-yl)-1H-1,2,4-triazole-3,5-diamine] cannot be ordered by IC50: < 1000 nM for the first, < 1000 nM for the second.

`Cc1cc(Nc2nc(N)n(-c3ncnc4ccc(F)cc34)n2)cnc1N1CCC(N2CCCC2)CC1` [compound 56, 1-(6-fluoro-quinazolin-4-yl)-N^3-(6-(4-(pyrrolidin-1-yl)piperidin-1-yl)-5-methylpyridin-3-yl)-1H-1,2,4-triazole-3,5-diamine] and `Cc1cc(Nc2nc(N)n(-c3ncnc4sc5c(c34)CCC5)n2)cnc1N1CCC(N2CCCC2)CC1` [compound 54, 1-(6,7-dihydro-5H-cyclopenta [4,5]thieno[2,3-d]pyrimidin-4-yl)-N^3-(6-(4-(pyrrolidin-1-yl)piperidin-1-yl)-5-methyl-pyridin-3-yl)-1H-1,2,4-triazole-3,5-diamine] cannot be ordered by IC50: < 1000 nM for the first, < 1000 nM for the second.

`Cc1csc2c(-n3nc(Nc4ccc(N5CCN([C@H]6C[C@@H]7CC[C@H]6C7)CC5)nc4)nc3N)ncnc12` [compound 73, 1-(7-methylthieno [3,2-d]pyrimidine-4-yl)-N^3-(6-(4-((1S,2S,4R)-bicyclo[2.2.1]heptan-2-yl)piperazin-1-yl)pyridin-3-yl)-1H-1,2,4-triazole-3,5-diamine] and `Nc1nc(Nc2ccc(N3CCN(C4CC5CCC4C5)CC3)nc2)nn1-c1nccc2ccccc12` (centres unmarked) [compound 7, 1-(isoquinolin-1-yl)-N^3-(6-(4-(bicyclo[2.2.1]heptan-2-yl)piperazin-1-yl)pyridin-3-yl)-1H-1,2,4-triazole-3,5-diamine] cannot be ordered by IC50: < 1000 nM for the first, < 1000 nM for the second.

`Cc1csc2c(-n3nc(Nc4cnc5c(c4)CN(C4CCCC4)CC5)nc3N)ncnc12` [compound 97, 1-(7-methylthieno [3,2-d]pyrimidin-4-yl)-N^3-(6-cyclopentyl-5,6,7,8-tetrahydro-1,6-naphthyridin-3-yl)-1H-1,2,4-triazole-3,5-diamine] and `Cc1csc2c(-n3nc(Nc4cnc5c(c4)CN(CC4CC4)CC5)nc3N)nc(Cl)nc12` [compound 101, 1-(2-chloro-7-methylthieno [3,2-d]pyrimidin-4-yl)-N^3-(6-cyclopropyl-methyl-5,6,7,8-tetrahydro-1,6-naphthyridin-3-yl)-1H-1,2,4-triazole-3,5-diamine] cannot be ordered by IC50: < 1000 nM for the first, < 1000 nM for the second.

`Cc1csc2c(-n3nc(Nc4cnc5c(c4)CC(NC4CCN(C)CC4)CC5)nc3N)nc(Cl)nc12` (centres unmarked) [compound 51, 1-(2-chloro-7-methylthieno [3,2-d]pyrimidine-4-yl)-N^3-(6-(1-methyl-piperidin-4-ylamino)-5,6,7,8-tetrahydro-quinolin-3-yl)-1H-1,2,4-triazole-3,5-diamine] and `Cc1csc2c(-n3nc(Nc4cnc5c(c4)CN(CCN(C)C)CC5)nc3N)nc(Cl)nc12` [compound 50, 1-(2-chloro-7-methylthieno [3,2-d]pyrimidine-4-yl)-N^3-(6-(2-dimethyl-aminoethyl)-5,6,7,8-tetrahydro-1,6-naphthyridin-3-yl)-1H-1,2,4-triazole-3,5-diamine] cannot be ordered by IC50: < 1000 nM for the first, < 1000 nM for the second.

`Cc1csc2c(-n3nc(Nc4ccc(N5CCC(N6CCN(C)CC6)CC5)nc4)nc3N)nc(Cl)nc12` [compound 22] and `CCN(CC)C1CCN(c2ccc(Nc3nc(N)n(-c4nc(Cl)nc5c(C)csc45)n3)cn2)C1` (centres unmarked) [compound 44, 1-(2-chloro-7-methylthieno [3,2-d]pyrimidin-4-yl)-N^3-(6-(3-diethylamino-pyrrolidin-1-yl)pyridin-3-yl)-1H-1,2,4-triazole-3,5-diamine] cannot be ordered by IC50: < 1000 nM for the first, < 1000 nM for the second.

`Cc1csc2c(-n3nc(Nc4ccc(/C=C/CN5CCC(N(C)C)C5)nc4)nc3N)ncnc12` (centres unmarked) [compound 120, 1-(7-methylthieno [3,2-d]pyrimidin-4-yl)-N^3-(2-(3-(3-dimethyl-amino-pyrrolidin-1-yl)propen-1-yl)pyridin-5-yl)-1H-1,2,4-triazole-3,5-diamine] and `Cc1csc2c(-n3nc(Nc4ccc(C=CCN5CCCCC5)nc4)nc3N)ncnc12` [compound 127, 1-(7-methylthieno [3,2-d]pyrimidin-4-yl)-N^3-(2-(3-(piperidin-1-yl)propen-1-yl)pyridin-5-yl)-1H-1,2,4-triazole-3,5-diamine] cannot be ordered by IC50: < 1000 nM for the first, < 1000 nM for the second.

First: COc1cc2ncnc(-n3nc(Nc4ccc5c(c4)NC(=O)CCC5)nc3N)c2cc1OC [compound 9, 1-(6,7-dimethoxy-quinazoline-4-yl)-N^3-(4,5-dihydro-1H-benzo[b]azepin-2(3H)-on-8-yl)-1H-1,2,4-triazole-3,5-diamine]
Second: COc1cc2ncnc(-n3nc(Nc4ccc(C=CCN5CCC(N(C)C)CC5)nc4)nc3N)c2cc1OC [compound 69, 1-(6,7-dimethoxy-quinazoline-4-yl)-N^3-(6-(3-(4-dimethyl-amino-piperidin-1-yl)propenyl)pyridin-3-yl)-1H-1,2,4-triazole-3,5-diamine]
The IC50 of the first is higher: 1000 to 10000 nM for the first, < 1000 nM for the second. The second is the more potent here.

`Cc1csc2c(-n3nc(Nc4cnc5[nH]ccc5c4)nc3N)nc(Cl)nc12` [compound 32, 1-(2-chloro-7-methylthieno [3,2-d]pyrimidin-4-yl)-N^3-(1H-pyrrolo[2,3-b]pyridin-5-yl)-1H-1,2,4-triazole-3,5-diamine] and `Cc1cc(Nc2nc(N)n(-c3nc(Cl)nc4c(C)csc34)n2)cnc1N1CCN(CC2CC2)CC1` [compound 95, 1-(2-chloro-7-methylthieno [3,2-d]pyrimidin-4-yl)-N^3-(6-(4-(cyclopropyl-methyl)piperazin-1-yl)-5-methyl-pyridin-3-yl)-1H-1,2,4-triazole-3,5-diamine] cannot be ordered by IC50: < 1000 nM for the first, < 1000 nM for the second.

`COc1cc2ncnc(-n3nc(Nc4ccc(C=CCN5CCC(N6CCCC6)CC5)nc4)nc3N)c2cc1OC` [compound 81, 1-(6,7-dimethoxy-quinazoline-4-yl)-N^3-(6-(3-(4-pyrrolidin-1-ylpiperidin-1-yl)propenyl)pyridin-3-yl)-1H-1,2,4-triazole-3,5-diamine] and `COc1cc2ncnc(-n3nc(Nc4ccc(C=CCN5CCN(C6CCCC6)CC5)nc4)nc3N)c2cc1OC` [compound 90, 1-(6,7-dimethoxy-quinazoline-4-yl)-N^3-(6-(3-(4-cyclopentyl-piperazin-1-yl)propenyl)pyridin-3-yl)-1H-1,2,4-triazole-3,5-diamine] cannot be ordered by IC50: < 1000 nM for the first, < 1000 nM for the second.

`CCN(CC)CC1CCCN1c1ccc(Nc2nc(N)n(-c3nc(Cl)nc4c(C)csc34)n2)cn1` (centres unmarked) [compound 38, 1-(2-chloro-7-methylthieno [3,2-d]pyrimidin-4-yl)-N^3-(6-(2-diethylamino-methyl-pyrrolidin-1-yl)pyridin-3-yl)-1H-1,2,4-triazole-3,5-diamine] and `Cc1csc2c(-n3nc(Nc4ccc(N5CC6CN(C7CC8CCC7C8)CC6C5)nc4)nc3N)nc(Cl)nc12` (centres unmarked) [compound 57, 1-(2-chloro-7-methylthieno [3,2-d]pyrimidine-4-yl)-N^3-(6-(5-bicyclo[2.2.1]heptan-2-yl-octahydropyrrol [3,4-c]pyrrolyl)pyridine-3-yl)-1H-1,2,4-triazole-3,5-diamine] cannot be ordered by IC50: < 1000 nM for the first, < 1000 nM for the second.

In the case of `COc1cc2ncnc(-n3nc(Nc4ccc(N5CCC(N6CCCCC6)CC5)nc4)nc3N)c2cc1OC` [compound 27, 1-(6,7-dimethoxy-quinazoline-4-yl)-N^3-(6-(4-piperidin-1-ylpiperidin-1-yl)pyridine-3-yl)-1H-1,2,4-triazole-3,5-diamine], the IC50 is reported as < 1000 nM.
